Data on 12 compounds can be found in US20240165243A1, “EGFR DEGRADERS AND METHODS OF USE” (BeiGene Switzerland GmbH, priority 2021, published 2024).

By DC50 is commonly meant the concentration at which degradation of the target reaches its halfway point.

The subject of this assay is EGFR (Del19/T790M/C797S). The assay can be described thus: Cell degradation HTRF assay, H1975-clone #28 cells. The format is cell-based. Conditions: H1975-clone #28 (Del19/T790M/C797S) cells, 16 h treatment; for DC50: HTRF, read-out: H1975-clone#28 DTC DC50; for H1975-clone#28 DTC Dmax (%): maximum percentage of degradation. The procedure:
Cell Degradation of Example 124-189
H1975-#28 and H1975-#25 cells are treated with compounds diluted in 0.2% DMSO cell culture medium on day 2, incubate for 16 h, 37° C., 5% CO2. the final concentration of compounds in all assay is start with 10 uM, 5-fold dilution, total 8 doses were included.
After 16 h treatment, add HTRF lysis buffer to each well; seal the plate and incubate 1 hour at room temperature on a plate shaker; Once the cells are lysed, 16 μL of cell lysate are transferred to a PE 384-well HTRF detection plate; 4 μL of pre-mixed HTRF antibodies are added to each well; Cover the plate with a plate sealer, spin 1000 rpm for 1 min, Incubate overnight at room temperature; Read on BMG PheraStar with HTRF protocol (337 nm-665 nm-620 nm).
The inhibition (degradation) percentage of the compound was calculated by the following equation:
Inhibition percentage of Compound=100−100×(Signal−low control)/(High control−low control), wherein signal=each test compound group.
High control=Cell group with added DMSO and without compound, indicating microplate readings without EGFR degradation;
Dmax is the maximum percentage of inhibition (degradation).
The IC50 (DC50) value of a compound can be obtained by fitting the following equation
Y=Bottom+(TOP−Bottom)/(1+((IC50/X)^hillslope))
Wherein, X and Y are known values, and IC50, Hillslope, Top and Bottom are the parameters obtained by fitting with software. Y is the inhibition percentage (calculated from the equation), X is the concentration of the compound; IC50 is the concentration of the compound when the 50% inhibition is reached. The smaller the IC50 value is, the stronger the inhibitory ability of the compound is. Vice versa, the higher the IC50 value is, the weaker the ability the inhibitory ability of the compound is; Hillslope represents the slope of the fitted curve, generally around 1*; Bottom represents the minimum value of the curve obtained by data fitting, which is generally 0%±20%; Top represents the maximum value of the curve obtained by data fitting, which is generally 100%±20%. The experimental data were fitted by calculating and analyzing with Dotmatics data analysis software. When Dmax<50%, DC50 will be automatically assigned as larger than […].
For orientation: TR-FRET usually uses a lanthanide donor and a delayed reading to cut background.

For the compound `CCc1cc(Nc2ncc(Br)c(Nc3cnc4ccccc4c3P(C)(C)=O)n2)c(OC)cc1N1CCC(N2CCN(CCc3ccc(F)c4c3oc(=O)n4[C@H]3CCC(=O)NC3=O)CC2)CC1` [Example 126, (S)-3-(7-(2-(4-(1-(4-((5-bromo-4-((4-(dimethylphosphoryl)quinolin-3-yl)amino)pyrimidin-2-yl)amino)-2-ethyl-5-methoxyphenyl)piperidin-4-yl)piperazin-1-yl)ethyl)-4-fluoro-2-oxobenzo[d]oxazol-3(2H)-yl)piperidine-2,6-dione], the DC50 turned out to be 1.3 nM and the “H1975-clone#28 DTC Dmax (%)” value worked out at 84%.

For the compound `CCc1cc(Nc2ncc(Br)c(Nc3cnc4ccccc4c3P(C)(C)=O)n2)c(OC)cc1N1CCC(N2CCN(CCc3ccc(F)c4c3n(C)c(=O)n4C3CCC(=O)NC3=O)CC2)CC1` (stereo not drawn) [Example 130, 3-(4-(2-(4-(1-(4-((5-bromo-4-((4-(dimethylphosphoryl)quinolin-3-yl)amino)pyrimidin-2-yl)amino)-2-ethyl-5-methoxyphenyl)piperidin-4-yl)piperazin-1-yl)ethyl)-7-fluoro-3-methyl-2-oxo-2,3-dihydro-1H-benzo[d]imidazol-1-yl)piperidine-2,6-dione], the DC50 turned out to be 1 nM and the “H1975-clone#28 DTC Dmax (%)” value was found to be 86%.

As for `CCc1cc(Nc2ncc(Br)c(Nc3cnc4ccccc4c3P(C)(C)=O)n2)c(OC)cc1N1CCC(N2CCN(CCc3ccc4c(c3)oc(=O)n4C3CCC(=O)NC3=O)CC2)CC1` (stereo not drawn) [Example 132, 3-(6-(2-(4-(1-(4-((5-bromo-4-((4-(dimethylphosphoryl)quinolin-3-yl)amino)pyrimidin-2-yl)amino)-2-ethyl-5-methoxyphenyl)piperidin-4-yl)piperazin-1-yl)ethyl)-2-oxobenzo[d]oxazol-3(2H)-yl)piperidine-2,6-dione], the DC50 is 1 nM and the “H1975-clone#28 DTC Dmax (%)” value was found to be 80%.

Regarding `CCOc1cc(N2CCC(N3CCN(CCc4ccc5c(c4)oc(=O)n5C4CCC(=O)NC4=O)CC3)CC2)c(CC)cc1Nc1ncc(Br)c(Nc2cnc3cc(F)ccc3c2P(C)(C)=O)n1` (stereo not drawn) [Example 133, 3-(6-(2-(4-(1-(4-((5-bromo-4-((4-(dimethylphosphoryl)-7-fluoroquinolin-3-yl)amino)pyrimidin-2-yl)amino)-5-ethoxy-2-ethylphenyl)piperidin-4-yl)piperazin-1-yl)ethyl)-2-oxobenzo[d]oxazol-3(2H)-yl)piperidine-2,6-dione], the DC50 amounted to 3 nM and the “H1975-clone#28 DTC Dmax (%)” value is reported as 71%.

Regarding `CCc1cc(Nc2ncc(Br)c(Nc3cnc4cc(F)ccc4c3P(C)(C)=O)n2)c(OC)cc1N1CCC(N2CCN(CCc3ccc4c(c3)oc(=O)n4C3CCC(=O)NC3=O)CC2)CC1` (stereo not drawn) [Example 134, 3-(6-(2-(4-(1-(4-((5-bromo-4-((4-(dimethylphosphoryl)-7-fluoroquinolin-3-yl)amino)pyrimidin-2-yl)amino)-2-ethyl-5-methoxyphenyl)piperidin-4-yl)piperazin-1-yl)ethyl)-2-oxobenzo[d]oxazol-3(2H)-yl)piperidine-2,6-dione], the DC50 turned out to be 0.8 nM and the “H1975-clone#28 DTC Dmax (%)” value was 79%.

`CCc1cc(Nc2ncc(Br)c(Nc3cnc4ccccc4c3P(C)(C)=O)n2)c(OC)cc1N1CCC(N2CCN(CCc3cccc4c3n(CC)c(=O)n4C3CCC(=O)NC3=O)CC2)CC1` (stereo not drawn) [Example 135, 3-(4-(2-(4-(1-(4-((5-bromo-4-((4-(dimethylphosphoryl)quinolin-3-yl)amino)pyrimidin-2-yl)amino)-2-ethyl-5-methoxyphenyl)piperidin-4-yl)piperazin-1-yl)ethyl)-3-ethyl-2-oxo-2,3-dihydro-1H-benzo[d]imidazol-1-yl)piperidine-2,6-dione]: the half-maximal degradation concentration (DC50) stood at 0.9 nM and the “H1975-clone#28 DTC Dmax (%)” value was found to be 83%.

In the case of `CCOc1cc(N2CCC(N3CCN(CCc4cc(F)c(F)c5c4oc(=O)n5C4CCC(=O)NC4=O)CC3)CC2)c(CC)cc1Nc1ncc(Br)c(Nc2cnc3ccccc3c2P(C)(C)=O)n1` (stereo not drawn) [Example 136, 3-(7-(2-(4-(1-(4-((5-bromo-4-((4-(dimethylphosphoryl)quinolin-3-yl)amino)pyrimidin-2-yl)amino)-5-ethoxy-2-ethylphenyl)piperidin-4-yl)piperazin-1-yl)ethyl)-4,5-difluoro-2-oxobenzo[d]oxazol-3(2H)-yl)piperidine-2,6-dione], the DC50 amounted to 0.6 nM and the “H1975-clone#28 DTC Dmax (%)” value worked out at 81%.

On to `CCOc1cc(N2CCC(N3CCN(CCc4c(F)ccc5c4n(C)c(=O)n5C4CCC(=O)NC4=O)CC3)CC2)c(CC)cc1Nc1ncc(Br)c(Nc2cnc3ccccc3c2P(C)(C)=O)n1` (stereo not drawn) [Example 137, 3-(4-(2-(4-(1-(4-((5-bromo-4-((4-(dimethylphosphoryl)quinolin-3-yl)amino)pyrimidin-2-yl)amino)-5-ethoxy-2-ethylphenyl)piperidin-4-yl)piperazin-1-yl)ethyl)-5-fluoro-3-methyl-2-oxo-2,3-dihydro-1H-benzo[d]imidazol-1-yl) piperidine-2,6-dione], for which the DC50 worked out at 2.1 nM and the “H1975-clone#28 DTC Dmax (%)” value was 86%.

`CCOc1cc(N2CCC(N3CCN(CCc4cccc5c4C(C)(C)C(=O)N5C4CCC(=O)NC4=O)CC3)CC2)c(CC)cc1Nc1ncc(Br)c(Nc2cnc3ccccc3c2P(C)(C)=O)n1` (stereo not drawn) [Example 138, 3-(4-(2-(4-(1-(4-((5-bromo-4-((4-(dimethylphosphoryl)quinolin-3-yl)amino)pyrimidin-2-yl)amino)-5-ethoxy-2-ethylphenyl)piperidin-4-yl)piperazin-1-yl)ethyl)-3,3-dimethyl-2-oxoindolin-1-yl)piperidine-2,6-dione]: the DC50 is 3 nM and the “H1975-clone#28 DTC Dmax (%)” value is 83%.

For `CCOc1cc(N2CCC(N3CCN(CCc4ccc5c(c4)oc(=O)n5C4CCC(=O)NC4=O)CC3)CC2)c(CC)cc1Nc1ncc(Br)c(Nc2cnc3ccccc3c2P(C)(C)=O)n1` (stereo not drawn) [Example 139, 3-(6-(2-(4-(1-(4-((5-bromo-4-((4-(dimethylphosphoryl)quinolin-3-yl)amino)pyrimidin-2-yl)amino)-5-ethoxy-2-ethylphenyl)piperidin-4-yl)piperazin-1-yl)ethyl)-2-oxobenzo[d]oxazol-3(2H)-yl)piperidine-2,6-dione], the DC50 worked out at 1.5 nM and the “H1975-clone#28 DTC Dmax (%)” value stood at 75%.

On to `CCOc1cc(N2CCC(N3CCN(CCc4cccc5c4n(C)c(=O)n5C4CCC(=O)NC4=O)CC3)CC2)c(CC)cc1Nc1ncc(Br)c(Nc2cnc3ccccc3c2P(C)(C)=O)n1` (stereo not drawn) [Example 140, 3-(4-(2-(4-(1-(4-((5-bromo-4-((4-(dimethylphosphoryl)quinolin-3-yl)amino)pyrimidin-2-yl)amino)-5-ethoxy-2-ethylphenyl)piperidin-4-yl)piperazin-1-yl)ethyl)-3-methyl-2-oxo-2,3-dihydro-1H-benzo[d]imidazol-1-yl)piperidine-2,6-dione], for which the DC50 turned out to be 4.4 nM and the “H1975-clone#28 DTC Dmax (%)” value is given as 84%.

As to `CCc1cc(Nc2ncc(Br)c(Nc3cnc4ccccc4c3P(C)(C)=O)n2)c(OC)cc1N1CCC(N2CCN(CCc3ccc4c(oc(=O)n4C4CCC(=O)NC4=O)c3F)CC2)CC1` (stereo not drawn) [Example 142, 3-(6-(2-(4-(1-(4-((5-bromo-4-((4-(dimethylphosphoryl)quinolin-3-yl)amino)pyrimidin-2-yl)amino)-2-ethyl-5-methoxyphenyl)piperidin-4-yl)piperazin-1-yl)ethyl)-7-fluoro-2-oxobenzo[d]oxazol-3(2H)-yl)piperidine-2,6-dione], the DC50 was found to be 0.9 nM and the “H1975-clone#28 DTC Dmax (%)” value is on record as 81%.
